Consider 17 compounds from patent publication US9918964B2, “Reducing platelet activation, aggregation and platelet-stimulated thrombosis or blood coagulation by reducing mitochondrial respiration” (priority 2010, dated 2018).

Assay [1] deals with mitochondria isolated from liver of tilapia (Sarotheridon mossambica). It counts as biochemical.
Assay [2] shares this test system. It counts as biochemical. The source holds these as a separate data set.
The next assay has as its system platelets in whole blood. The assay can be described thus: Platelet function testing with the Hemostasis Mechanism Analyzer (HMA): clumping, sticking, clotting in whole blood. Particulars: for activity at 3300 µg/mL / activity at 5000 µg/mL / activity at 6700 µg/mL / activity at 700 µg/mL / activity at 1300 µg/mL / activity at 2700 µg/mL / activity at 5300 µg/mL / activity at 10700 µg/mL / activity at 670 µg/mL / activity at 11700 µg/mL / activity at 23300 µg/mL: Homo sapiens, Platelet; for activity at 700 µg/mL: Dosage (mg/ml) 0.7; for activity at 1300 µg/mL: Dosage (mg/ml) 1.3; for activity at 2700 µg/mL: Dosage (mg/ml) 2.7; for activity at 5300 µg/mL: Dosage (mg/ml) 5.3; for activity at 10700 µg/mL: Dosage (mg/ml) 10.7; for activity at 11700 µg/mL: Dosage (mg/ml) 11.7; for activity at 23300 µg/mL: Dosage (mg/ml) 23.3. It counts as cell-based, human.

The mark [3] stands for this setting: in vitro whole blood assay, clumping, sticking, clotting.
Setting [4] is: read-out: % clump time increase.
Setting [5] is: read-out: % stick time increase.
[6] abbreviates: 0 dosage = 100, read-out: % clot time increase.
The mark [7] stands for this setting: 0 dosage = 100, read-out: % clump time increase.
The mark [8] stands for this setting: 0 dosage = 100, read-out: % stick time increase.
[9] abbreviates: Dosage (mg/ml) 3.3, 0 dosage = 100, read-out: % clot time increase.
[10] abbreviates: Dosage (mg/ml) 3.3, 0 dosage = 100, read-out: % clump time increase.
The mark [11] stands for this setting: Dosage (mg/ml) 3.3, 0 dosage = 100, read-out: % stick time increase.
The mark [12] stands for this setting: Dosage (mg/ml) 6.7, 0 dosage = 100, read-out: % clot time increase.
Setting [13] is: Dosage (mg/ml) 6.7, 0 dosage = 100, read-out: % clump time increase.
Where [14] appears, read: Dosage (mg/ml) 6.7, 0 dosage = 100, read-out: % stick time increase.
[15] abbreviates: Dosage (mg/ml) 5, 0 dosage = 100, read-out: % clot time increase.
The mark [16] stands for this setting: Dosage (mg/ml) 5, 0 dosage = 100, read-out: % clump time increase.
Setting [17] is: Dosage (mg/ml) 5, 0 dosage = 100, read-out: % stick time increase.

≈ marks a conversion by molar mass, not a printed value. Read-outs that look alike come from different tables or passages of the source.

As to `Nc1nnn[nH]1` [Compound 34, 1H-tetrazol-5-amine], the “Reversible?” value in assay [1] is “reversible and Yes”. For the same compound, the “IC50 (mg/ml) mitochondria inhibition” value in assay [2] worked out at 8.5 mg/mL (≈ 99.9 mM).
For the compound `Brc1nn[nH]c1Br` [Compound 48, 4,5-dibromo-1H-triazole], the “Reversible?” value in assay [1] was “reversible and Yes”. Also, the “activity in the platelet assays (active agent or inactive)” value (“activity in the platelet assays” below) in the assay with platelets in whole blood (setting [3]) is listed as “met the criteria for active agents”. Moreover, the “IC50 (mg/ml) mitochondria inhibition” value in assay [2] was 30 mg/mL (≈ 132 mM).
Consider `Cc1ncsc1CCOC(=O)C[P+](c1ccccc1)(c1ccccc1)c1ccccc1.[Br-]` [Compound 49, [2-[2-(4-methylthiazol-5-yl)ethoxy]-2-oxo-ethyl]-triphenyl-phosphonium bromide], for which the “Reversible?” value in assay [1] was “irreversible and No”. In the assay on platelets in whole blood, the “activity in the platelet assays” value is “significantly reduced platelet activity or aggregation”. In assay [2], the “IC50 (mg/ml) mitochondria inhibition” value amounted to 8.8 mg/mL.
With `Clc1nnnn1-c1ccccc1` [Compound 54, 5-chloro-1-phenyl-tetrazole], the “activity in the platelet assays” value with platelets in whole blood (setting [3]) was “inactive”. Also, the “IC50 (mg/ml) mitochondria inhibition” value in assay [2] came out at 12.5 mg/mL (≈ 69.2 mM).
For `NC(=O)c1nn[nH]n1` [Compound 71, 2H-tetrazole-5-carboxamide], in the assay on platelets in whole blood (read-out: % clot time increase), the activity at 3300 µg/mL was 112%, the activity at 5000 µg/mL turned out to be 122% and the activity at 6700 µg/mL worked out at 137%. Moreover, in the assay with platelets in whole blood (setting [4]), the activity at 3300 µg/mL is 126%, the activity at 5000 µg/mL turned out to be 171% and the activity at 6700 µg/mL is 236%. In the assay with platelets in whole blood (setting [5]), the activity at 3300 µg/mL was 116%, the activity at 5000 µg/mL was 153% and the activity at 6700 µg/mL worked out at 205%. In assay [2], the “IC50 (mg/ml) mitochondria inhibition” value stood at 36.3 mg/mL (≈ 321 mM).
With `Cc1cscn1` [Compound 75, 4-methylthiazole], in the assay on platelets in whole blood (setting [6]), the activity at 700 µg/mL was found to be 103%, the activity at 1300 µg/mL was determined as 106%, the activity at 2700 µg/mL was 108% and the activity at 5300 µg/mL came to 114%. In the assay with platelets in whole blood (setting [6]), the activity at 10700 µg/mL worked out at 122%. For the same compound, in the assay with platelets in whole blood (setting [7]), the activity at 700 µg/mL was found to be 115%, the activity at 1300 µg/mL was determined as 109%, the activity at 2700 µg/mL was determined as 126% and the activity at 5300 µg/mL stood at 136%. For the same compound, the activity at 10700 µg/mL with platelets in whole blood (setting [7]) was determined as 164%. In addition, in the assay with platelets in whole blood (setting [8]), the activity at 700 µg/mL was 106%, the activity at 1300 µg/mL was 102%, the activity at 2700 µg/mL is 123% and the activity at 5300 µg/mL worked out at 132%. Also, the activity at 10700 µg/mL in the assay with platelets in whole blood (setting [8]) is 155%. The “IC50 (mg/ml) mitochondria inhibition” value in assay [2] was 40.6 mg/mL (≈ 409 mM).
Take `Cc1nnn[nH]1` [Compound 76, 5-methyl-1H-tetrazole]: in the assay on platelets in whole blood (read-out: % clot time increase), the activity at 670 µg/mL is 91%, the activity at 3300 µg/mL is 120% and the activity at 6700 µg/mL came to 301%. Moreover, in the assay with platelets in whole blood (setting [4]), the activity at 670 µg/mL is 129% and the activity at 3300 µg/mL was found to be 209%. Moreover, in the assay on platelets in whole blood (setting [5]), the activity at 670 µg/mL turned out to be 125%, the activity at 3300 µg/mL is 217% and the activity at 6700 µg/mL stood at 983%. Further, in assay [2], the “IC50 (mg/ml) mitochondria inhibition” value is 12.6 mg/mL (≈ 150 mM).
In the case of `OCc1c[nH]c2ccccc12` [Compound 77, 1H-indol-3-ylmethanol], the figures for the activity at 700 µg/mL with platelets in whole blood (setting [6]), in the assay with platelets in whole blood (setting [7]) and in the assay with platelets in whole blood (setting [8]) were 102%, 95% and 92%, respectively. Besides, the activity at 3300 µg/mL was determined as 104% in the assay with platelets in whole blood (setting [9]), 81% in the assay with platelets in whole blood (setting [10]) and 86% with platelets in whole blood (setting [11]). In addition, the activity at 6700 µg/mL with platelets in whole blood (setting [12]) came out at 105%; in the assay with platelets in whole blood (setting [13]), 109%; in the assay on platelets in whole blood (setting [14]) it was 97%. Further, the activity at 11700 µg/mL with platelets in whole blood (setting [6]) is 108%; in the assay on platelets in whole blood (setting [7]), 116%; in the assay with platelets in whole blood (setting [8]), 114%. For the same compound, the activity at 23300 µg/mL with platelets in whole blood (setting [6]) stood at 126%; with platelets in whole blood (setting [7]) it was 140%; in the assay on platelets in whole blood (setting [8]) it was 100%. In addition, the “activity in the platelet assays” value with platelets in whole blood (setting [3]) is given as “met the criteria for active agents”. Further, the “IC50 (mg/ml) mitochondria inhibition” value in assay [2] was determined as 82.8 mg/mL (≈ 563 mM).
As for `CCOC(=O)Cc1nnn[nH]1` [Compound 80, ethyl 2-(1H-tetrazol-5-yl)acetate], the activity at 3300 µg/mL in the assay on platelets in whole blood (setting [9]) was determined as 110%; in the assay on platelets in whole blood (setting [10]), 107%; with platelets in whole blood (setting [11]), 104%. Also, the activity at 5000 µg/mL in the assay with platelets in whole blood (setting [15]) came out at 121%; with platelets in whole blood (setting [16]) it was 143%; with platelets in whole blood (setting [17]), 141%. Also, the activity at 6700 µg/mL in the assay with platelets in whole blood (setting [12]) was found to be 133%; in the assay with platelets in whole blood (setting [13]), 207%; in the assay with platelets in whole blood (setting [14]), 209%. Further, the “IC50 (mg/ml) mitochondria inhibition” value in assay [2] was 100 mg/mL (≈ 640 mM).
As for `c1cncnc1` [Compound 81, pyrimidine], the “activity in the platelet assays” value with platelets in whole blood (setting [3]) was “inactive”. Also, the “IC50 (mg/ml) mitochondria inhibition” value in assay [2] came out at 51.5 mg/mL (≈ 643 mM).
In the case of `O=C(O)Cc1nnn[nH]1` [Compound 82, 2-(1H-tetrazol-5-yl)acetic acid], the activity at 3300 µg/mL was 137% in the assay on platelets in whole blood (setting [9]), 240% in the assay with platelets in whole blood (setting [10]) and 222% in the assay with platelets in whole blood (setting [11]). In addition, the activity at 5000 µg/mL with platelets in whole blood (setting [15]) was determined as 217%; with platelets in whole blood (setting [16]), 755%; in the assay on platelets in whole blood (setting [17]), 601%. Moreover, the “IC50 (mg/ml) mitochondria inhibition” value in assay [2] amounted to 11.8 mg/mL (≈ 92.1 mM).
In the case of `CSc1nnn[nH]1` [Compound 83, 5-methylsulfanyl-1H-tetrazole], the “Reversible?” value in assay [1] is “reversible and Yes”. For the same compound, the figures for the activity at 3300 µg/mL with platelets in whole blood (setting [9]), in the assay with platelets in whole blood (setting [10]) and with platelets in whole blood (setting [11]) were 127%, 167% and 157%, respectively. The values for the activity at 5000 µg/mL in the assay with platelets in whole blood (setting [15]), in the assay on platelets in whole blood (setting [16]) and in the assay on platelets in whole blood (setting [17]) were 191%, 584% and 512%, respectively. The activity at 6700 µg/mL with platelets in whole blood (setting [12]) worked out at 297%. The “IC50 (mg/ml) mitochondria inhibition” value in assay [2] amounted to 14.5 mg/mL (≈ 125 mM).
Regarding `Sc1ncc[nH]1` [Compound 84, 1H-imidazole-2-thiol], the activity at 6700 µg/mL in the assay with platelets in whole blood (setting [12]) was 99%; in the assay on platelets in whole blood (setting [13]), 113%; in the assay on platelets in whole blood (setting [14]), 105%. The activity at 11700 µg/mL in the assay on platelets in whole blood (setting [6]) amounted to 110%; in the assay with platelets in whole blood (setting [7]), 121%; in the assay with platelets in whole blood (setting [8]) it was 111%. For the same compound, the activity at 23300 µg/mL with platelets in whole blood (setting [6]) amounted to 128%; in the assay on platelets in whole blood (setting [7]), 149%; with platelets in whole blood (setting [8]), 142%. Also, in the assay with platelets in whole blood (setting [3]), the “activity in the platelet assays” value is “met the criteria for active agents”. Further, the “IC50 (mg/ml) mitochondria inhibition” value in assay [2] is 17.3 mg/mL (≈ 173 mM).
Consider `Cn1c(-c2ccccc2)c[nH]c1=S` [Compound 91, 3-methyl-4-phenyl-1H-imidazole-2-thione], for which, in the assay on platelets in whole blood (setting [3]), the “activity in the platelet assays” value is “inactive”. Further, the “IC50 (mg/ml) mitochondria inhibition” value in assay [2] came out at 5.4 mg/mL (≈ 28.4 mM).
Turning to `Cc1ncsc1C` [Compound 92, 4,5-dimethylthiazole], the activity at 700 µg/mL was determined as 100% in the assay on platelets in whole blood (setting [6]), 112% with platelets in whole blood (setting [7]) and 118% in the assay on platelets in whole blood (setting [8]). Moreover, the activity at 3300 µg/mL in the assay with platelets in whole blood (setting [9]) was 101%; in the assay with platelets in whole blood (setting [10]) it was 176%; with platelets in whole blood (setting [11]), 171%. Moreover, the activity at 6700 µg/mL was 106% in the assay on platelets in whole blood (setting [12]), 195% in the assay with platelets in whole blood (setting [13]) and 179% in the assay with platelets in whole blood (setting [14]). Also, the activity at 11700 µg/mL in the assay with platelets in whole blood (setting [6]) worked out at 126%; with platelets in whole blood (setting [7]) it was 224%; in the assay on platelets in whole blood (setting [8]) it was 211%. Moreover, the activity at 23300 µg/mL with platelets in whole blood (setting [6]) worked out at 162%; in the assay on platelets in whole blood (setting [7]), 717%; in the assay on platelets in whole blood (setting [8]), 546%. Also, the “IC50 (mg/ml) mitochondria inhibition” value in assay [2] turned out to be 50.9 mg/mL (≈ 450 mM).
For `Cc1cncs1` [Compound 94, 5-methylthiazole], the “Reversible?” value in assay [1] was “reversible and Yes”. Moreover, the “IC50 (mg/ml) mitochondria inhibition” value in assay [2] amounted to 23.5 mg/mL (≈ 237 mM).
Thiazole [Compound 47]: in assay [1], the “Reversible?” value was “reversible and Yes”. Further, in the assay with platelets in whole blood, the “activity in the platelet assays” value is “inactive”. In addition, in assay [2], the “IC50 (mg/ml) mitochondria inhibition” value was found to be 21.3 mg/mL.
